Experimental data as given in PMC10974294, “Addressing the ADME Challenges of Compound Loss in a PDMS-Based Gut-on-Chip Microphysiological System” (Pharmaceutics, 2024).
Structures can show the parent of a compound that is named as a salt.

Key:
[1] = Compound loss (PDMS ad- and absorption) in cell-free organ-chips; format: in vitro ADME; settings: for Compound Loss Bottom Channel (%) / Compound Loss Top Channel (%): 10 µM per drug in cocktail, outlet vs inlet after one hour at 200 µL/h, mean of two experiments
Text: S-1® Organ-Chips from Emulate Inc. (Boston, MA, USA) comprise 2 parallel channels (top and bottom) for cell culture, which are superimposed and separated via a porous membrane, all made of polydimethylsiloxane (PDMS). The 50 µm thick membrane contains pores of a diameter of 7 µm, which are spaced 40 µm apart from each other. In addition, 2 more channels, in which a vacuum can be applied to laterally stretch the cell culture channels, flank the cell culture channels horizontally. The top channel has a size of 1000 × 1000 µm (width × height), a culture area of 28 mm^2, and a volume of 28 µL. The bottom channel has a size of 1000 × 200 µm (width × height), a culture area of 24.5 mm^2, and a volume of 5.6 µL. Both channels share an area of 17.1 mm^2 of the porous membrane as a coculture area. To conduct experiments, each organ-chip is inserted into a cell culture container called Pod®, which connects 4 physically separated fluid reservoirs with the in- and outlets of the top and bottom channels. […] The Zoë module controls, as well as regulates, the vacuum and pressured gas flows generated by the Orb hub module, which also powers the Zoë module.
Compound loss experiments in cell-free organ-chips were performed with used chips after removal of the cells and washing-out of previously perfused compounds (Section 4). […] The compound concentrations in the outlets were measured via liquid chromatography-tandem mass spectrometry (LC-MS/MS, Section 2.8) after a period of one hour, with a flow rate of 200 µL/h (manufacturer’s instruction), and relatively compared to the inlet concentrations, and the difference was reported as the percent drug absorbed. The experiments were performed in duplicate.

Caco-2/HUVEC gut-on-chip [2] = test: Time-resolved testosterone loss, clearance, permeability and mass balance in Caco-2/HUVEC gut-on-chip
Method: The Caco-2/HUVEC gut-on-chip was prepared according to the Caco-2/HUVEC gut-on-chip protocol provided by Emulate Inc. Briefly, on day −1 of the protocol, the PDMS membrane was activated using Emulate reagent (ER) 1 dissolved in ER 2 solution at a concentration of 0.5 mg/mL. The top channels were filled with 50 µL and the bottom channels with 20 µL of ER 1 solution and then treated under UV light for 10 min. Next, activated ER 1 solution was aspirated from both channels and exchanged with fresh ER 1 solution after which the chips were again exposed to UV light for 5 min. The two channels were then subsequently washed with ER 2 solution followed by ice-cold PBS. After the PBS was fully aspirated from both channels, the chips were coated with 100 µg/mL Matrigel and 30 µg/mL collagen type I in PBS overnight at 37 °C. On day 0 of the protocol, both channels were washed with HUVEC culture medium before 0.14 × 10^6 viable HUVECs in 20 µL HUVEC culture medium were seeded in the bottom channel. The chips were inverted and HUVECs were allowed to adhere for at least 2 h to the porous PDMS membrane. Afterwards, the chips were inverted again, and the top channel was filled with enough Caco-2 culture medium to also cover the in- and outlets (~100 µL). Caco-2 cells were seeded in the top channel (0.15 × 10^6 viable cells in 50 µL Caco-2 culture medium). Caco-2 cells were also allowed to adhere for 2 h and then the channels were filled with the respective media and incubated overnight at 37 °C. On day 1, the inlet reservoirs of the Pods were filled with 3 mL of the respective degassed media, and the chips were connected to the Pods. The Pods were then placed into the Zoë module, and a flow at a rate of 30 µL/h (manufacturer’s instruction) was applied for both channels. From day 3 onwards, the HUVECs were cultured in HUVEC culture medium but with 0.5% FCS. On day 3, 10% lateral, peristalsis-like stretch was activated with a frequency of 0.15 Hz (manufacturer’s instruction). On day 8, the FCS concentration in the Caco-2 culture medium was reduced from 20% to 10%. Medium reservoirs were replenished with fresh medium 2–3 times per week.
The cell-free organ-chips were previously utilized in experiments with cells and were prepared in the same way as described for the compound loss studies above. The Caco-2/HUVEC gut-on-chip was cultivated under the conditions described for standard cell culture until day 13. […] An introduction step with a high flow rate of 600 µL/h is recommended by the manufacturer to “saturate” the ad- and absorptions of compounds by the PDMS material. […] The samples from the bottom outlet were used directly for bioanalytical quantification. […]
A quantitative bioanalysis was performed with a fit-for-purpose assay using protein precipitation followed by LC-MS/MS. […]

[3] = Time-resolved testosterone loss and chip-specific clearance in cell-free organ-chips
Method: The cell-free organ-chips were previously utilized in experiments with cells and were prepared in the same way as described for the compound loss studies above. The Caco-2/HUVEC gut-on-chip was cultivated under the conditions described for standard cell culture until day 13. […] An introduction step with a high flow rate of 600 µL/h is recommended by the manufacturer to “saturate” the ad- and absorptions of compounds by the PDMS material. The necessity of this step will be discussed in Section 3 and Section 4. After the introduction step, both outlets were aspirated. […] During the sampling, the flow was stopped for a few seconds, a Pod®, which included a chip, was removed from the Zoë, a single chip removed from the Pod®, and samples were taken. The samples from the bottom outlet were used directly for bioanalytical quantification. The samples from the top inlet and top outlet were sampled from the respective reservoirs and diluted 1:50 (v/v) in transport buffer. The chips were subsequently dismantled from the Pods, and samples from the top channel and bottom channel were taken with a pipette via the outlets (Figure 1A). The samples from the top channel were diluted 1:50 (v/v) and the samples from the bottom channel 1:2 (v/v) in transport buffer.
The outlet reservoirs contained, therefore, perfusates from time zero to time point t. […] A period of 60 min was chosen because it was recommended by the manufacturer for diverse applications. […] For time points before 60 min, Ct,last was identical to Ct,cum by definition. Vt is the total volume of perfusate collected from time zero to t. Vt was calculated with the following equation:(4) Vt=t÷60×Q
The time profiles of Ct,last in the cell-free organ-chips and in the Caco-2/HUVEC gut-on-chip are shown in Figure 6A,B. Using Ct,last, the compound loss can be calculated in each putative collecting period of 60 min with the following equation:(5) Losst=Cinlet−Ct, last, top−Ct, last, bottom×Q

Caco-2/HUVEC gut-on-chip [4] = test: Metabolite identification in Caco-2/HUVEC gut-on-chip; settings: for fraction of the total amount of all metabolites (peak areas): testosterone 10 µM perfused 2 h at 200 µL/h, top and bottom outlets
Method: The analysis was performed on an LC-MS system containing a Vanquish UPLC (ThermoFisher Scientific, San Jose, CA, USA) coupled to an Orbitrap FusionTribrid high-resolution mass spectrometer (ThermoFisher Scientific). The structural elucidation was based on exact mass measurements in combination with the interpretation of fragment spectra.

P-gp [5] = test: in vitro; settings: human, Caco-2
Method: Either the top (A–B direction) or bottom (B–A direction) channel served as the donor compartments and the respective other channels (A–B: bottom; B–A: top) as receiver compartments. […] Following an Emulate protocol, dosing of a cocktail of both compounds at 10 µM in transporter buffer was initiated via a drug introduction step (flow rate of 600 µL/h for 10 min), after which the outlets were aspirated. The outlet concentrations were determined after one hour (flow rate: 200 µL/h). […] The samples from the receiver outlets were used for the bioanalysis without dilution. The samples from the donor inlets, as well as outlets, were diluted 1:50 (v/v) in transport buffer. All samples were spiked with the internal standard and used for the LC-MS/MS analysis, as described in Section 2.8.

P-gp [6] = test: Bidirectional permeability assay in Caco-2/HUVEC gut-on-chip; format: cell-based, human; settings: human, pH 7.4; Caco-2/HUVEC gut-on-chip, day 10; 10 µM; no inhibitor; read-out: efflux ratio, control
Method: (§1) The Caco-2/HUVEC gut-on-chip was prepared according to the Caco-2/HUVEC gut-on-chip protocol provided by Emulate Inc. Briefly, on day −1 of the protocol, the PDMS membrane was activated using Emulate reagent (ER) 1 dissolved in ER 2 solution at a concentration of 0.5 mg/mL. The top channels were filled with 50 µL and the bottom channels with 20 µL of ER 1 solution and then treated under UV light for 10 min. Next, activated ER 1 solution was aspirated from both channels and exchanged with fresh ER 1 solution after which the chips were again exposed to UV light for 5 min. The two channels were then subsequently washed with ER 2 solution followed by ice-cold PBS. After the PBS was fully aspirated from both channels, the chips were coated with 100 µg/mL Matrigel and 30 µg/mL collagen type I in PBS overnight at 37 °C. On day 0 of the protocol, both channels were washed with HUVEC culture medium before 0.14 × 10^6 viable HUVECs in 20 µL HUVEC culture medium were seeded in the bottom channel. The chips were inverted and HUVECs were allowed to adhere for at least 2 h to the porous PDMS membrane. Afterwards, the chips were inverted again, and the top channel was filled with enough Caco-2 culture medium to also cover the in- and outlets (~100 µL). Caco-2 cells were seeded in the top channel (0.15 × 10^6 viable cells in 50 µL Caco-2 culture medium). […]

P-gp [7] = biological target: T1, P-gp (Homo sapiens, UniProt P08183); test: Inhibition of P-gp mediated Quinidine efflux in MDCK-MDR1 cells; format: cell-based; settings: probe quinidine, Supplementary Table S2
T1 construct: expressed in transfected cells; host or cells: MDCK-MDR1 cells
T1 sequence (P08183 whole entry): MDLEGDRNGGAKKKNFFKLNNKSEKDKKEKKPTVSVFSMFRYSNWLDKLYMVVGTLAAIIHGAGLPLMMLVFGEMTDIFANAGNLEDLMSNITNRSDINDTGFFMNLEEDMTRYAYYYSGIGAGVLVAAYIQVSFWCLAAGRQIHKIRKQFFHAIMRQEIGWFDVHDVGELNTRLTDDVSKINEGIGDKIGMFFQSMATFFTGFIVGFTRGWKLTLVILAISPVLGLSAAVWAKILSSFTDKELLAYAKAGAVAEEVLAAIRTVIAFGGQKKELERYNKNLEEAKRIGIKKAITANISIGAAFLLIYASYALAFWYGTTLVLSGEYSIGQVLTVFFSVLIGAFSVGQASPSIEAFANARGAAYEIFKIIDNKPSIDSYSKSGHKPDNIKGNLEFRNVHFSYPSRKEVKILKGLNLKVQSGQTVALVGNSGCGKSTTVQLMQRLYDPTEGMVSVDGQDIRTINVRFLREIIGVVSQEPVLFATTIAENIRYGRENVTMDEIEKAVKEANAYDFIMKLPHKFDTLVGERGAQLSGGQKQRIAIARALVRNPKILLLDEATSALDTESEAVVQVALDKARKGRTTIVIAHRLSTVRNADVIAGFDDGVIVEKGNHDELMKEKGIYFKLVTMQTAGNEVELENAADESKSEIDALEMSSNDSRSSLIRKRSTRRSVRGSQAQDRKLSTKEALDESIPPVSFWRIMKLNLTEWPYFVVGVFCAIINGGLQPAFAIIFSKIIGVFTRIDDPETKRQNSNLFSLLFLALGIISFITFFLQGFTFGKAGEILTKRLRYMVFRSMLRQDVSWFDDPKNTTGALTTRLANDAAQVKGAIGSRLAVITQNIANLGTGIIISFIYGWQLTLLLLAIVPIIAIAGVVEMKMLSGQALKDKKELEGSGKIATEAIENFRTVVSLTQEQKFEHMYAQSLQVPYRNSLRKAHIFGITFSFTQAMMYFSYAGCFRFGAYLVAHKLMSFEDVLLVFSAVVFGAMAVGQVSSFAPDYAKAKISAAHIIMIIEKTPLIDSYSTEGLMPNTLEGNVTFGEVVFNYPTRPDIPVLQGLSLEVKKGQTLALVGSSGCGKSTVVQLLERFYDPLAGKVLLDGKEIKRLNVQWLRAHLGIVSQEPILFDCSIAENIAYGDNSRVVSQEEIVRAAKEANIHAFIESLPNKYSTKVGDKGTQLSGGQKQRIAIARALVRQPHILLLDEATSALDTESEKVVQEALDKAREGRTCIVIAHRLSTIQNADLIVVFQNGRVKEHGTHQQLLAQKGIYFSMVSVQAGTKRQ

Caco-2/HUVEC gut-on-chip [8] = test: Bidirectional permeability assay in Caco-2/HUVEC gut-on-chip; format: cell-based, human; settings: coperfusion with elacridar 10 µM in Caco-2/HUVEC gut-on-chip
Method: as §1

[9] = cell-free organ-chips, testosterone 10 µM, 200 µL/h

Structure (SMILES)	Compound Loss Bottom Channel (%) ([1]; cell-free organ-chips)	Compound Loss Top Channel (%) ([1]; cell-free organ-chips)	also measured
C=C[C@H]1C[N@@]2CC[C@H]1C[C@@H]2[C@@H](O)c1ccnc2ccc(OC)cc12 [Quinidine]	13.4%	0.3%	–
C[C@]12CC[C@H]3[C@@H](CCC4=CC(=O)CC[C@@]43C)[C@@H]1CC[C@@H]2O [Testosterone]	35.1%	37.6%	maximum testosterone concentration (top channel and outlet) (Caco-2/HUVEC gut-on-chip [2]; Caco-2/HUVEC gut-on-chip, 10 µM via top inlet, 200 µL/h, 135 min): < 2000 nM; time to steady state (Caco-2/HUVEC gut-on-chip [2]; Caco-2/HUVEC gut-on-chip, first sample time point): ≤ 15 min; clearance (total) in Caco-2/HUVEC gut-on-chip (Caco-2/HUVEC gut-on-chip [2]; collecting period 75-135 min, flow 200 µL/h): 172.1 µL/h; metabolic clearance in the gut-on-chip (Caco-2/HUVEC gut-on-chip [2]; total clearance minus chip-specific clearance, flow 200 µL/h): 160.4 µL/h; final testosterone concentration in the bottom channel and outlet ([3]; cell-free organ-chips, 10 µM via top inlet, 200 µL/h, 135 min): < 1000 nM; testosterone concentration in the top channel and outlet ([3]; cell-free organ-chips, 10 µM via top inlet, 200 µL/h, reached over 135 min): ~ 7000 nM; clearance (chip-specific / chip-intrinsic clearance) ([3]; cell-free organ-chips, collecting period 75-135 min, flow 200 µL/h): 11.7 µL/h; compound loss during the first 60 min of the collecting period [3, 9]: 719.1 pmol/h; compound loss in the last 60 min of the collecting period [3, 9]: 116.5 pmol/h; compound loss corresponding to chip-intrinsic clearance ([3]; corresponds to 11.7 µL/h at flow 200 µL/h): 6%; CYP3A4-related hydroxylation of testosterone (Caco-2/HUVEC gut-on-chip [4]; Caco-2/HUVEC gut-on-chip): did not detect
Cc1nnc2n1-c1sc(CCC(=O)N3CCOCC3)cc1C(c1ccccc1Cl)=NC2 [Apafant]	8.0%	15.0%	efflux ratio (P-gp [5]): 12.4 ± 7.8; efflux ratio at 1 h, 10 µM (P-gp [6]): 22.2
Cc1ncc2n1-c1ccc(Cl)cc1C(c1ccccc1F)=NC2 [Midazolam]	67.8%	72.1%	–
CC(C)c1nc(N(C)S(C)(=O)=O)nc(-c2ccc(F)cc2)c1/C=C/[C@@H](O)C[C@@H](O)CC(=O)O [Rosuvastatin]	7.9%	12.6%	–
C[C@]12CCC(=O)C=C1CC[C@@H]1[C@@H]2CC[C@]2(C)C(=O)CC[C@@H]12 [4-androstenedione]	–	–	fraction of the total amount of all metabolites (peak areas) (Caco-2/HUVEC gut-on-chip [4]): 96.5%; compound loss in cell-free organ-chips (in words, relative to testosterone) ([1]; Supplementary Table S1): much higher compound loss
C[C@]12CC[C@H]3[C@@H](CCC4=CC(=O)CC[C@@]43C)[C@@H]1CC[C@@H]2OS(=O)(=O)O [testosterone sulfate]	–	–	fraction of the total amount of all metabolites (peak areas) (Caco-2/HUVEC gut-on-chip [4]): 0.3%
CCOC(=O)C1=C(C)NC(C)=C(C(=O)OC)C1c1cccc(Cl)c1Cl (centres unmarked) [Felodipine]	84.0%	79.0%	–
CCN(CC)CC#CCOC(=O)C(O)(c1ccccc1)C1CCCCC1 (centres unmarked) [Oxybutynin]	100.0%	99.9%	PDMS compound loss during the one-hour period (in words) ([1]; cell-free organ-chips, 10 µM, one hour, 200 µL/h, top and bottom channels): complete
COc1cc2c(cc1OC)CN(CCc1ccc(NC(=O)c3cccc4c(=O)c5cccc(OC)c5[nH]c34)cc1)CC2 [Elacridar]	–	–	IC90 (P-gp [7]): ~1000 nM; inhibition of the efflux of Apafant (Caco-2/HUVEC gut-on-chip [8]): completely
O=C1CC2(CCCC2)CC(=O)N1CCCCN1CCN(c2ncccn2)CC1 [Busiprone]	30.5%	33.1%	–
CC(C)(C)NC(=O)[C@@H]1C[C@@H]2CCCC[C@@H]2CN1C[C@@H](O)[C@H](Cc1ccccc1)NC(=O)[C@H](CC(N)=O)NC(=O)c1ccc2ccccc2n1 [Saquinavir]	21.9%	48.0%	–
Cc1c(-c2ccc(O)cc2)n(Cc2ccc(OCCN3CCCCCC3)cc2)c2ccc(O)cc12 [Bazedoxifene]	26.0%	56.4%	–
C[C@]12CC[C@H]3[C@@H](CCC4=CC(=O)CC[C@@]43C)[C@@H]1CC[C@@H]2O[C@@H]1O[C@H](C(=O)O)[C@@H](O)[C@H](O)[C@H]1O [testosterone glucuronide]	–	–	fraction of the total amount of all metabolites (peak areas) (Caco-2/HUVEC gut-on-chip [4]): 3.2%
O=C1[C@H](CC[C@H](O)c2ccc(F)cc2)[C@@H](c2ccc(O)cc2)N1c1ccc(F)cc1 [Ezetemibe]	1.3%	0.0%	–
CC(C)c1c(C(=O)Nc2ccccc2)c(-c2ccccc2)c(-c2ccc(F)cc2)n1CC[C@@H](O)C[C@@H](O)CC(=O)O [Atorvastatin]	7.4%	18.9%	–
O[C@@H](COc1cccc2ncccc12)CN1CCN([C@@H]2c3ccccc3[C@@H]3[C@H](c4ccccc42)C3(F)F)CC1 [Zosuquidar]	99.0%	97.0%	compound loss after 1 h of perfusion ([1]; cell-free organ-chips, 10 µM): ~100%
